{"source": "paper PMC8683641", "about": "(Journal of medicinal chemistry, 2021)", "key": {"hCB2 [1]": {"test_system": "hCB2", "details": "literature values; cited from earlier work"}, "[2]": {"biological_target": "hCB2 Cannabinoid Receptors (Homo sapiens, UniProt P34972)", "sequence (P34972 whole entry)": "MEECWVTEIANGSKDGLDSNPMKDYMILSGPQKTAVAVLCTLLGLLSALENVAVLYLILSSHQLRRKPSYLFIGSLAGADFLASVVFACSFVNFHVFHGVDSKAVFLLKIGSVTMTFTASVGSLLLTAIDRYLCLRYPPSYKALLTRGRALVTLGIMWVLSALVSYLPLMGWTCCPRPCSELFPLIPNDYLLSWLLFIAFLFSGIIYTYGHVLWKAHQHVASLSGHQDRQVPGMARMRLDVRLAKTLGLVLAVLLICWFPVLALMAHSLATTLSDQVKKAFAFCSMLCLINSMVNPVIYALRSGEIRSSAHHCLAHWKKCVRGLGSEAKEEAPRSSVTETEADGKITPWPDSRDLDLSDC", "assay": "[35S]GTPγS binding assay for efficacy, CHO-hCB2 membranes", "format": "biochemical", "details": "from [35S]GTPγS binding"}, "hCB1": {"biological_target": "hCB1 (Homo sapiens, UniProt P21554)", "sequence (P21554 whole entry)": "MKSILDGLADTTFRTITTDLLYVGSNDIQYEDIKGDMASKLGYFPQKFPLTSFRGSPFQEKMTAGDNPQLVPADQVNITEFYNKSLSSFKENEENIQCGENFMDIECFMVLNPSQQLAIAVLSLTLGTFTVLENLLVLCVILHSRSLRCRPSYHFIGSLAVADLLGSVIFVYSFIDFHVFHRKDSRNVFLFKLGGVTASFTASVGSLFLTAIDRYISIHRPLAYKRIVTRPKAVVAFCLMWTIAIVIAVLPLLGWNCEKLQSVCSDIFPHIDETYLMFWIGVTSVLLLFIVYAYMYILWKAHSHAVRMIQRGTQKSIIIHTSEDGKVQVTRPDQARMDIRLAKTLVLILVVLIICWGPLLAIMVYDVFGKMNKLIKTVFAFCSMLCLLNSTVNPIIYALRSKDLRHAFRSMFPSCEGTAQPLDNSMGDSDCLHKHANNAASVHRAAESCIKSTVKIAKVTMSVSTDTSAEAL", "format": "binding", "details": "propyl tail versus pentyl"}, "hCB2 [3]": {"test_system": "hCB2", "format": "binding, human", "details": "Ki hCB1 / Ki hCB2"}}, "data": [{"smiles": "CCCn1cc(C(=O)c2cccc3ccccc23)c2ccccc21", "note": "[JWH-072]", "values": [{"measurement": "SI (CB2 selectivity)", "setting": "hCB2 [1]", "result": 6}]}, {"smiles": "C#CCCCn1c(C)c(C(=O)c2ccc3c(c2)CC(C)(C)C3)c2ccccc21", "note": "[GBD-029, (2,2-Dimethyl-2,3-dihydro-1H-inden-5-yl) (2-methyl-1-(pent-4-yn-1-yl)-1H-indol-3-yl)methanone]", "values": [{"measurement": "functional characterization at hCB2", "setting": "[2]; listed as 49", "result": "agonist"}]}, {"smiles": "CCCn1cc(C(=O)c2ccc3c(c2)CC(C)(C)C3)c2ccccc21", "note": "[GBD-005, (2,2-dimethyl-2,3-dihydro-1H-inden-5-yl) (1-propyl-1H-indol-3-yl)methanone]", "values": [{"measurement": "functional characterization at hCB2", "setting": "[2]", "result": "neutral antagonists"}, {"measurement": "reduction in CB1R affinity", "setting": "hCB1", "result": "> 60", "unit": "fold"}]}, {"smiles": "CCCCCn1cc(C(=O)c2ccc3c(c2)CC(C)(C)C3)c2ccccc21", "note": "[GBD-003, (2,2-Dimethyl-2,3-dihydro-1H-inden-5-yl) (1-pentyl-1H-indol-3-yl)methanone]", "values": [{"measurement": "functional characterization at hCB2", "setting": "[2]", "result": "CB2R antagonist"}]}, {"smiles": "C#CCCCn1cc(C(=O)c2ccc3c(c2)CC(C)(C)C3)c2ccccc21", "note": "[GBD-014, (2,2-Dimethyl-2,3-dihydro-1H-inden-5-yl) (1-(pent-4-yn-1-yl)-1H-indol-3-yl)methanone]", "values": [{"measurement": "functional characterization at hCB2", "setting": "[2]; listed as 35", "result": "neutral antagonists"}]}, {"smiles": "CCCCCn1cc(C(=O)c2cccc3c2CC(C)(C)C3)c2ccccc21", "note": "[GBD-002, (2,2-dimethyl-2,3-dihydro-1H-inden-4-yl) (1-pentyl-1H-indol-3-yl)methanone]", "values": [{"measurement": "functional characterization at hCB2", "setting": "[2]", "result": "full agonist"}]}, {"smiles": "C=CCCCn1cc(C(=O)c2ccc3c(c2)CC(C)(C)C3)c2ccccc21", "note": "[GBD-013, (2,2-Dimethyl-2,3-dihydro-1H-inden-5-yl) (1-(pent-4-en-1-yl)-1H-indol-3-yl)methanone]", "values": [{"measurement": "selectivity index (SI) for CB2", "setting": "hCB2 [3]", "result": 10}]}, {"smiles": "CCCn1c(C)c(C(=O)c2cccc3ccccc23)c2ccccc21", "note": "[JWH-015]", "values": [{"measurement": "SI (CB2 selectivity)", "setting": "hCB2 [1]", "result": 24}]}]}
